# Laboratory results: patent US8097588B2, “Trophinin-binding peptides and uses thereof” (Sanford-Burnham Medical Research Institute, priority 2007, dated 2012)
# How the values were obtained:
# ErbB4 [1] = assay: Tyrosine kinase activity assay of anti-ErbB4 immunoprecipitates, A431 cells; type: cell-based; details: GWRQ peptide 5 μg/ml, EGF 20 ng/ml
# Description: (§1) A431 cells and HT-H cells were cultured in 10 cm plate to sub-confluency.
# (§2) Medium was replaced with DME without FCS, and cells were cultured for 3 days without FCS by exchanging medium every day. To HT-H or A431 monolayer kept at 4° C., Na3VO4 was added to 1 mM. GWRQ peptide (5 μg/ml) and/or recombinant human EGF (20 ng/ml) was added to each plate, and left at 4° C. for 30 min. Cells were harvested by rubber policeman, and washed with cold PBS. Cells were lysed in PBS containing 1% NP-40, and cell lysate was subjected to immunoprecipitation with 20 & I protein A beads pre-coated with control IgG or with rabbit anti-ErbB4 antibody (Sant Cruz Biotechnology). Immunoprecipitates were washed with cold PBS and suspended in cold PBS. A polyvinylchloride ELISA plate (Falcon) was coated with tyrosine kinase substrate poly EY (Sigma) in PBS (1 μg/100 μl) at 4° C. for 20 hours. After washing the plate, each immunoprecipitate as triplicate was added to each well in 100 & I kinase assay buffer (50 mM Hepes buffer, pH 7.4, 20 mM MgCl2, 1 mM MnCl2 2 mM Na3VO4, and 0.4 mM ATP), and reacted at room temperature for 30 min. […] After washing wells with TBS, peroxidase substrate ABTS (Pierce) was added and developed color was read in an ELISA reader at 405 mm.
# HT-H cells [2] = assay: Western blot for tyrosine phosphorylated proteins, HT-H cells; type: cell-based, human; details: serum-depleted medium, 30 min
# Description: (§3) Tyrosine phosphorylated proteins were detected by anti-phosphotyrosine antibody (4G10, mouse IgG). HT-H cells and A431 cells were grown in 10 cm plates to semi confluency, incubated in phosphorylation medium with GWRQ peptide (GWRQ-MAP; 2 μg/ml) at 4° C. for 15 min, and stimulated for phosphorylation at 37° C. for 0 min 120 min. Control HT-H cells were treated in the same manner without GWRQ peptide. HT-H cells were harvested using rubber policemen, collected by centrifugation, and washed once with cold PBS. Cells were lysed with 0.5% NP-40 in PBS containing phosphatase inhibitors (30 mM NaF, 40 mM β-glycerophosphate, 20 mM Na pyrophosphate, and 1 mM Na2VO4) and protease inhibitors (2 mM EGTA, 5 mM EDTA, 1 mM phenylmethylsulfonylfluoride, 3 mM benzamidine, 5 μM pepstatin A, 10 μM leupeptin). Western blot was carried out as described above.
# (§4) Screening of phosphorylated proteins by phospho specific antibodies was carried out by Kinexus, Vancouver, B. C., Canada. HT-H cells and A431 cells grown as monolayers were serum starved by culturing in medium lacking FCS for 2 days. Cells were incubated in phosphorylation medium without FCS and then stimulated at 37° C. for 0 min˜120 min in medium containing recombinant human EGF (20 ng/ml) with or without GWRQ peptide.
# A431 cells = assay: Western blot for tyrosine phosphorylated proteins, A431 cells; type: cell-based; details: serum-depleted medium, 30 min
# Description: as §3, §4
# ErbB4 [3] = assay: Tyrosine kinase activity assay of anti-ErbB4 immunoprecipitates, HT-H cells; type: cell-based, human; details: GWRQ peptide 5 μg/ml, EGF 20 ng/ml
# Description: as §1, §2
# HT-H cells [4] = assay: Activation of HT-H cells, monomeric versus branched peptide; type: cell-based, human
Substance,ErbB4 kinase activity in A431 cells (ErbB4 [1]),EGFR / tyrosine phosphorylation in HT-H cells (HT-H cells [2]),EGFR / tyrosine phosphorylation in A431 cells (A431 cells),ErbB4 kinase activity in HT-H cells (ErbB4 [3]),concentration needed to activate HT-H cells (HT-H cells [4]) [µg/mL],efficiency relative to octameric branched GWRQ peptide (GWRQ-MAP) (HT-H cells [4]; less efficiency)
EGF: recombinant human EGF (NSDSECPLSHDGYCLHDGVCMYIEALDKYACNCVVGYIGERCQYRDLKWWELR),activated,no detectable EGFR phosphorylation,caused EGFR phosphorylation,activated,–,–
monomeric GWRQ peptide: a single linear GWRQ peptide,–,–,–,–,200 to 500,about 100 times
